# Laboratory results reported in patent EP4417602A1, “SUBSTITUTED PYRAZOLE CARBOXAMIDES, SALTS THEREOF AND THEIR USE AS HERBICIDALLY ACTIVE SUBSTANCES” (Bayer AG, priority 2023, dated 2024).
# System: MATIN
# Experiment: A. Herbicidal pre-emergence action on harmful plants (Tables A)
# Type: in vivo, Matricaria inodora
# Details: application rate 1280 g/ha; visual grading after ca. 3 weeks vs untreated controls; 100% = plants have died off, 0% = as control plants
# Summary of the method: (§1)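 Values are visual percent damage relative to untreated controls, scored ca. 3 weeks after the compound was sprayed on the covering soil of sown pots (sandy loam) at rates up to 1280 g/ha, formulated as WP or EC with 0.5% additive.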
row,Compound,pre-emergence activity against MATIN [%]
1,Cn1cc(C(=O)N2CCCC2Cc2ccc(F)cc2F)c(COc2ccccc2)n1 (racemic) [Example I-008],90
2,COCc1nn2c(c1C(=O)N1CCCC1Cc1ccccc1F)CCC2 (racemic) [Example I-022],90

# System: STEME
# Experiment: as above
# Type: in vivo, Stellaria media
# Details: application rate 1280 g/ha; visual grading after ca. 3 weeks vs untreated controls; 100% = plants have died off, 0% = as control plants
# Summary of the method: as §1
row,Compound,pre-emergence activity against STEME [%]
1,Cn1cc(C(=O)N2CCCC2Cc2ccc(F)cc2F)c(COc2ccccc2)n1 (racemic) [Example I-008],90

# System: ZEAMX
# Experiment: F. Post-emergence effects on crop plants (Tables F)
# Type: in vivo, Zea mays
# Details: application rate 80 g/ha, crop plant
# Summary of the method: (§2)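 Plants were grown in sandy loam in a greenhouse and sprayed post-emergence at the single-leaf stage, 2–3 weeks after sowing. Visual damage was scored after ca. 3 weeks against untreated controls (0% = as control, 100% = dead).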
row,Compound,post-emergence activity against ZEAMX in % [%]
1,Cn1cc(C(=O)N2CCCC2Cc2ccc(F)cc2F)c(COc2ccccc2)n1 (racemic) [Example I-008],0
2,COCc1nn2c(c1C(=O)N1CCCC1Cc1ccccc1F)CCC2 (racemic) [Example I-022],0

# Same assay, conditions: application rate 320 g/ha, crop plant
row,Compound,post-emergence activity against ZEAMX in % [%]
1,Cn1cc(C(=O)N2CCCC2Cc2ccc(F)cc2F)c(COc2ccccc2)n1 (racemic) [Example I-008],0
2,COCc1nn2c(c1C(=O)N1CCCC1Cc1ccccc1F)CCC2 (racemic) [Example I-022],0

# System: LOLRI
# Experiment: C. Herbicidal pre-emergence action, weed and crop plants (Tables C)
# Type: in vivo, Lolium rigidum
# Details: application rate 320 g/ha; Table C7a
# Description: (§3) Seeds of mono- and dicotyledonous weed plants and crop plants were sown, in plastic or organic planting pots, in sandy loam and covered with soil. The compounds according to the invention, formulated in the form of wettable powders (WP) or as emulsifiable concentrates (EC), were applied to the surface of the covering soil as aqueous suspension or emulsion, with the addition of 0.5% of an additive, at an application rate of 6001 of water/ha (converted). Following treatment, the pots were placed in a greenhouse and kept under optimum growth conditions for the test plants. The visual grading of the damage to the test plants was carried out after ca. 3 weeks in comparison to untreated controls (herbicidal effect in percent (%): 100% effect = plants have died off, 0% effect = as control plants). Tables C1 to C12 below show the effects of selected compounds of the general formula (I) according to table 1 on various harmful plants and an application rate corresponding to 320 g/ha or below obtained by the experimental procedure mentioned above. Table C1: pre-emergence activity at 320g/ha against KCHSC in %
row,Compound,pre-emergence activity against LOLRI [%]
1,COCc1nn2c(c1C(=O)N1CCCC1Cc1ccccc1F)CCC2 (racemic) [Example I-022],100

# System: POAAN
# Experiment: A. Herbicidal pre-emergence action on harmful plants (Tables A)
# Type: in vivo, Poa annua
# Details: application rate 80 g/ha; Table A7c
# Summary of the method: as §1
row,Compound,pre-emergence activity against POAAN [%]
1,Cn1cc(C(=O)N2CCCC2Cc2ccc(F)cc2F)c(COc2ccccc2)n1 (racemic) [Example I-008],100
2,COCc1nn2c(c1C(=O)N1CCCC1Cc1ccccc1F)CCC2 (racemic) [Example I-022],90

# Same assay, conditions: application rate 320 g/ha; Table A7b
row,Compound,pre-emergence activity against POAAN [%]
1,Cn1cc(C(=O)N2CCCC2Cc2ccc(F)cc2F)c(COc2ccccc2)n1 (racemic) [Example I-008],100
2,COCc1nn2c(c1C(=O)N1CCCC1Cc1ccccc1F)CCC2 (racemic) [Example I-022],100

# Same assay, conditions: application rate 1280 g/ha; visual grading after ca. 3 weeks vs untreated controls; 100% = plants have died off, 0% = as control plants
row,Compound,pre-emergence activity against POAAN [%]
1,Cn1cc(C(=O)N2CCCC2Cc2ccc(F)cc2F)c(COc2ccccc2)n1 (racemic) [Example I-008],100
2,COCc1nn2c(c1C(=O)N1CCCC1Cc1ccccc1F)CCC2 (racemic) [Example I-022],100

# System: DIGSA
# Experiment: as above
# Type: in vivo, Digitaria sanguinalis
# Details: application rate 320 g/ha; Table A12b
# Summary of the method: as §1
row,Compound,pre-emergence activity against DIGSA [%]
1,Cn1cc(C(=O)N2CCCC2Cc2ccc(F)cc2F)c(COc2ccccc2)n1 (racemic) [Example I-008],90
2,COCc1nn2c(c1C(=O)N1CCCC1Cc1ccccc1F)CCC2 (racemic) [Example I-022],90

# Same assay, conditions: application rate 1280 g/ha; Table A12a
row,Compound,pre-emergence activity against DIGSA [%]
1,Cn1cc(C(=O)N2CCCC2Cc2ccc(F)cc2F)c(COc2ccccc2)n1 (racemic) [Example I-008],100
2,COCc1nn2c(c1C(=O)N1CCCC1Cc1ccccc1F)CCC2 (racemic) [Example I-022],90

# System: GLXMA
# Experiment: D. Pre-emergence effects on crop plants (Tables D)
# Type: in vivo, Glycine max
# Details: crop plant; application rate 80 g/ha; Table D4b
# Summary of the method: (§4)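 Seeds sown in sandy loam and covered; WP or EC formulations sprayed onto the soil surface as aqueous suspension/emulsion with 0.5% additive, at 320 g/ha or below. Greenhouse-grown; visual damage scored after ca. 3 weeks against untreated controls (0% = as control, 100% = plants dead).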
row,Compound,pre-emergence activity against GLXMA [%]
1,Cn1cc(C(=O)N2CCCC2Cc2ccc(F)cc2F)c(COc2ccccc2)n1 (racemic) [Example I-008],20
2,COCc1nn2c(c1C(=O)N1CCCC1Cc1ccccc1F)CCC2 (racemic) [Example I-022],0

# Same assay, conditions: crop plant; application rate 320 g/ha; Table D4a
row,Compound,pre-emergence activity against GLXMA [%]
1,COCc1nn2c(c1C(=O)N1CCCC1Cc1ccccc1F)CCC2 (racemic) [Example I-022],0

# System: ECHCG
# Experiment: A. Herbicidal pre-emergence action on harmful plants (Tables A)
# Type: in vivo, Echinochloa crus-galli
# Details: application rate 320 g/ha; visual grading after ca. 3 weeks vs untreated controls; 100% = plants have died off, 0% = as control plants
# Summary of the method: as §1
row,Compound,pre-emergence activity against ECHCG [%]
1,COCc1nn2c(c1C(=O)N1CCCC1Cc1ccccc1F)CCC2 (racemic) [Example I-022],90

# Same assay, conditions: application rate 1280 g/ha; visual grading after ca. 3 weeks vs untreated controls; 100% = plants have died off, 0% = as control plants
row,Compound,pre-emergence activity against ECHCG [%]
1,Cn1cc(C(=O)N2CCCC2Cc2ccc(F)cc2F)c(COc2ccccc2)n1 (racemic) [Example I-008],90
2,COCc1nn2c(c1C(=O)N1CCCC1Cc1ccccc1F)CCC2 (racemic) [Example I-022],100

# System: GLXMA
# Experiment: F. Post-emergence effects on crop plants (Tables F)
# Type: in vivo, Glycine max
# Details: application rate 320 g/ha, crop plant
# Summary of the method: as §2
row,Compound,post-emergence activity against GLXMA in % [%]
1,Cn1cc(C(=O)N2CCCC2Cc2ccc(F)cc2F)c(COc2ccccc2)n1 (racemic) [Example I-008],0
2,COCc1nn2c(c1C(=O)N1CCCC1Cc1ccccc1F)CCC2 (racemic) [Example I-022],0

# System: DIGSA
# Experiment: C. Herbicidal pre-emergence action, weed and crop plants (Tables C)
# Type: in vivo, Digitaria sanguinalis
# Details: application rate 320 g/ha; Table C5a
# Description: as §3
row,Compound,pre-emergence activity against DIGSA [%]
1,Cn1cc(C(=O)N2CCCC2Cc2ccc(F)cc2F)c(COc2ccccc2)n1 (racemic) [Example I-008],90
2,COCc1nn2c(c1C(=O)N1CCCC1Cc1ccccc1F)CCC2 (racemic) [Example I-022],90

# System: BRSNW
# Experiment: D. Pre-emergence effects on crop plants (Tables D)
# Type: in vivo, Brassica napus
# Details: application rate 80 g/ha, crop plant
# Summary of the method: as §4
row,Compound,pre-emergence activity against BRSNW in % [%]
1,Cn1cc(C(=O)N2CCCC2Cc2ccc(F)cc2F)c(COc2ccccc2)n1 (racemic) [Example I-008],0
2,COCc1nn2c(c1C(=O)N1CCCC1Cc1ccccc1F)CCC2 (racemic) [Example I-022],0

# Same assay, conditions: application rate 320 g/ha, crop plant
row,Compound,pre-emergence activity against BRSNW in % [%]
1,Cn1cc(C(=O)N2CCCC2Cc2ccc(F)cc2F)c(COc2ccccc2)n1 (racemic) [Example I-008],10
2,COCc1nn2c(c1C(=O)N1CCCC1Cc1ccccc1F)CCC2 (racemic) [Example I-022],0

# System: SETVI
# Experiment: C. Herbicidal pre-emergence action, weed and crop plants (Tables C)
# Type: in vivo, Setaria viridis
# Details: application rate 320 g/ha; Table C10
# Description: as §3
row,Compound,pre-emergence activity against SETVI [%]
1,Cn1cc(C(=O)N2CCCC2Cc2ccc(F)cc2F)c(COc2ccccc2)n1 (racemic) [Example I-008],90

# System: ECHCG
# Experiment: as above
# Type: in vivo, Echinochloa crus-galli
# Details: application rate 320 g/ha; Table C6a
# Description: as §3
row,Compound,pre-emergence activity against ECHCG [%]
1,Cn1cc(C(=O)N2CCCC2Cc2ccc(F)cc2F)c(COc2ccccc2)n1 (racemic) [Example I-008],90
2,COCc1nn2c(c1C(=O)N1CCCC1Cc1ccccc1F)CCC2 (racemic) [Example I-022],90

# System: TRZAS
# Experiment: F. Post-emergence effects on crop plants (Tables F)
# Type: in vivo, Triticum aestivum
# Details: application rate 80 g/ha, crop plant
# Summary of the method: as §2
row,Compound,post-emergence activity against TRZAS in % [%]
1,Cn1cc(C(=O)N2CCCC2Cc2ccc(F)cc2F)c(COc2ccccc2)n1 (racemic) [Example I-008],20
2,COCc1nn2c(c1C(=O)N1CCCC1Cc1ccccc1F)CCC2 (racemic) [Example I-022],0

# Same assay, conditions: application rate 320 g/ha, crop plant
row,Compound,post-emergence activity against TRZAS in % [%]
1,Cn1cc(C(=O)N2CCCC2Cc2ccc(F)cc2F)c(COc2ccccc2)n1 (racemic) [Example I-008],20
2,COCc1nn2c(c1C(=O)N1CCCC1Cc1ccccc1F)CCC2 (racemic) [Example I-022],0
